9 molecules from PubChem BioAssay (NCI) can be followed below.

Among the test systems are EKVX NSCLC; MOLT-4 leukemia; SNB-75 CNS; HOP-62 NSCLC; ACHN renal; M14 melanoma; SF-539 CNS; MALME-3M melanoma; HL-60(TB) leukemia; SN12C renal.
Assay in all cases: NCI anticancer screen, dose series, 48 h

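Cultured in 96-well plates, cells were exposed to test compound for 48 hours across five concentrations. At the GI50, growth is halved. TGI: concentration producing complete growth inhibition.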

For the molecule `Nc1c(-c2ccc(-c3c(N)[n+]([O-])c4ccccc4[n+]3[O-])cc2)[n+]([O-])c2ccccc2[n+]1[O-]`, the TGI in the test on EKVX NSCLC is 79.9 µM; in the test with MOLT-4 leukemia it was above 100 µM; with SNB-75 CNS it was 21.9 µM; in the test with HOP-62 NSCLC, 32.3 µM; in the test on ACHN renal it was 31.1 µM; in the test on M14 melanoma, 35.1 µM. Further, the TGI is 18.2 µM with SF-539 CNS, 8.57 µM in the test on MALME-3M melanoma, above 100 µM in the test with HL-60(TB) leukemia and 34.4 µM in the test on SN12C renal.

Take `CC(=O)NC1C(OCc2ccccc2)OC(COC(=O)CCCCCCCCCCNC(=O)CCNc2ccc([N+](=O)[O-])c3[nH]c4ccc(O)cc4c(=O)c23)C(O)C1OC(C)C(=O)N[C@H](C(=O)N[C@H](CCC(=O)O)C(N)=O)C(C)C` (some centres not stated): the TGI was above 100 µM in the test on EKVX NSCLC; above 100 µM with MOLT-4 leukemia; 64.8 µM with SNB-75 CNS; above 100 µM in the test with HOP-62 NSCLC; above 100 µM in the test on ACHN renal; above 100 µM in the test on M14 melanoma. In addition, the TGI in the test with SF-539 CNS, in the test with MALME-3M melanoma, in the test with HL-60(TB) leukemia and in the test on SN12C renal was above 100 µM throughout.

For the molecule `Cc1cnc2n(c1=O)Cc1ccccc1CO2`, the GI50 with EKVX NSCLC is 20.8 µM; in the test on MOLT-4 leukemia, 18.3 µM; in the test with SNB-75 CNS, 25.3 µM; with HOP-62 NSCLC, 20 µM; in the test with ACHN renal, 17400 nM; in the test on M14 melanoma, 14500 nM. Further, the GI50 is 24000 nM in the test on SF-539 CNS, 19.8 µM with MALME-3M melanoma, 15500 nM with HL-60(TB) leukemia and 23.2 µM in the test on SN12C renal. Also, the TGI with EKVX NSCLC was 45.1 µM; in the test on MOLT-4 leukemia, 39.3 µM; with SNB-75 CNS it was above 64 µM; in the test with HOP-62 NSCLC, 38 µM; in the test on ACHN renal it was 33.8 µM; in the test with M14 melanoma, 29.1 µM. Also, the TGI with SF-539 CNS was 60 µM; in the test on MALME-3M melanoma, 44.9 µM; with HL-60(TB) leukemia it was 35.1 µM; in the test on SN12C renal it was 71.3 µM.

For `C=C(C=O)[C@@H]1CC=C(C=O)CC1`, the GI50 with EKVX NSCLC was 14.5 µM; in the test on MOLT-4 leukemia it was 3.69 µM; in the test on SNB-75 CNS, 15.9 µM; with HOP-62 NSCLC, 24.8 µM; with ACHN renal, 2750 nM; in the test with SF-539 CNS it was 9880 nM. Besides, the GI50 in the test with MALME-3M melanoma was 4.39 µM; with HL-60(TB) leukemia, 2480 nM; in the test on SN12C renal, 4.31 µM. Further, the TGI in the test with EKVX NSCLC is 67.6 µM; with MOLT-4 leukemia it was above 100 µM; with SNB-75 CNS, above 100 µM; in the test on HOP-62 NSCLC, above 76.7 µM; in the test with ACHN renal, 9.65 µM; in the test with SF-539 CNS, 33.5 µM. Further, the TGI with MALME-3M melanoma is above 26 µM; in the test with HL-60(TB) leukemia, above 100 µM; in the test with SN12C renal it was 33.9 µM.

`O=C1OC(/C=C/c2ccccc2)C(=O)C1=O` (configuration not stated): the TGI with EKVX NSCLC, in the test on MOLT-4 leukemia, in the test with SNB-75 CNS, in the test on HOP-62 NSCLC, in the test with ACHN renal and in the test with M14 melanoma was above 100 µM each time. The TGI in the test with SF-539 CNS, in the test on MALME-3M melanoma and in the test on HL-60(TB) leukemia was above 100 µM in each case.

`CC(=O)c1ccc(-c2ccc(C(C)=O)s2)s1`: the TGI in the test with EKVX NSCLC, in the test on MOLT-4 leukemia, with SNB-75 CNS, with HOP-62 NSCLC, with ACHN renal and with M14 melanoma was above 100 µM in each case. Moreover, the TGI in the test on SF-539 CNS, in the test with MALME-3M melanoma, with HL-60(TB) leukemia and in the test with SN12C renal was above 100 µM in each case.

As for `CCc1cc(Cc2cc(CC)cc(C(C)(C)C)c2O)c(O)c(C(C)(C)C)c1`, the GI50 in the test on EKVX NSCLC is 2.24 µM; with MOLT-4 leukemia it was 3.99 µM; in the test on SNB-75 CNS, 3.37 µM; in the test on HOP-62 NSCLC, 4.39 µM; with ACHN renal, 3270 nM; in the test on M14 melanoma it was 3630 nM. Also, the GI50 with SF-539 CNS was 2510 nM; in the test on MALME-3M melanoma, 1.16 µM; in the test with HL-60(TB) leukemia, 4420 nM; in the test with SN12C renal, 3.82 µM. Moreover, the TGI in the test with EKVX NSCLC was 6.77 µM; in the test on MOLT-4 leukemia, above 100 µM; in the test on SNB-75 CNS, 14.1 µM; in the test on HOP-62 NSCLC it was 17.1 µM; in the test on ACHN renal, 10.4 µM; in the test on M14 melanoma, 14.4 µM. Moreover, the TGI in the test on SF-539 CNS was 5.98 µM; in the test with MALME-3M melanoma, 3.48 µM; in the test with HL-60(TB) leukemia, above 100 µM; in the test on SN12C renal it was 13.7 µM.

`COc1ccc2nc3c(cc2c1)C(=O)CC(C(F)(F)F)C3` (configuration not stated): the GI50 was 4.46 µM with EKVX NSCLC; 0.108 µM in the test on MOLT-4 leukemia; 1.04 µM in the test with SNB-75 CNS; 3.36 µM in the test with HOP-62 NSCLC; 1020 nM in the test on ACHN renal; 238 nM in the test on M14 melanoma. In addition, the GI50 is 1740 nM in the test on SF-539 CNS, 2.57 µM in the test with MALME-3M melanoma, 333 nM in the test on HL-60(TB) leukemia and 0.805 µM in the test with SN12C renal. Besides, the TGI in the test on EKVX NSCLC, in the test with MOLT-4 leukemia, in the test with SNB-75 CNS, in the test with HOP-62 NSCLC, in the test with ACHN renal and with M14 melanoma was above 100 µM each time. The TGI is 5.64 µM in the test with SF-539 CNS, above 100 µM in the test on MALME-3M melanoma, above 46.8 µM with HL-60(TB) leukemia and above 100 µM in the test with SN12C renal.

As for `Nc1c(C(=O)Nc2cccc3ccccc23)sc2nc3c(cc12)CCCCCC3`, the GI50 was 2.9 µM in the test on EKVX NSCLC; 2.38 µM in the test on MOLT-4 leukemia; 1.24 µM with SNB-75 CNS; 5.05 µM in the test on HOP-62 NSCLC; 2790 nM with ACHN renal; 1050 nM in the test with M14 melanoma. Also, the GI50 in the test on SF-539 CNS is 1240 nM; in the test with MALME-3M melanoma it was above 50 µM; in the test on HL-60(TB) leukemia, 1650 nM; in the test on SN12C renal it was 3.4 µM. For the same molecule, the TGI with EKVX NSCLC, in the test with MOLT-4 leukemia, in the test with SNB-75 CNS, in the test with HOP-62 NSCLC, with ACHN renal and in the test on M14 melanoma was above 50 µM throughout. Further, the TGI in the test on SF-539 CNS, with MALME-3M melanoma, with HL-60(TB) leukemia and with SN12C renal was above 50 µM each time.
